Measured values as given in PubChem BioAssay AID2060604 (Molecular Pharmacology Branch, DTP, NCI, 2025).
Where “and” joins values, the source holds several entries; their conditions need not be identical. Equal values may be shown once. One block for each molecule: values may come before it.

System: 379773-124-R-J2-PDC complex spheroids, viability % test/control
Test: Anticancer human tumor 379773-124-R-J2-PDC patient-derived endometrial carcinoma cell line growth inhibition [CLK]
Details: for viability, T/C: stronger effect = lower value
How it was run: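 Multi-cell-type spheroids combined patient-derived tumor cells with HUVEC endothelial cells and human mesenchymal stem cells. Paired agents were dosed in half-log steps down from about clinical Cmax, or from 10 microM where Cmax was unknown.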

[1] = curve of first compound, second compound 0.0316 µM
[2] = curve of first compound, second compound 0.1 µM
[3] = curve of first compound, second compound 0.316 µM
[4] = curve of first compound, second compound 1 µM
[5] = curve of first compound, second compound 3.16 µM
[6] = curve of first compound, second compound 10 µM
[7] = second compound 0.0316 µM, first compound 0.0316 µM
[8] = second compound 0.0316 µM, first compound 0.1 µM
[9] = second compound 0.0316 µM, first compound 0.316 µM
[10] = second compound 0.0316 µM, first compound 1 µM
[11] = second compound 0.0316 µM, first compound 3.16 µM
[12] = second compound 0.0316 µM, first compound 10 µM
[13] = second compound 0.1 µM, first compound 0.0316 µM
[14] = second compound 0.1 µM, first compound 0.1 µM
[15] = second compound 0.1 µM, first compound 0.316 µM
[16] = second compound 0.1 µM, first compound 1 µM
[17] = second compound 0.1 µM, first compound 3.16 µM
[18] = second compound 0.1 µM, first compound 10 µM
[19] = second compound 0.316 µM, first compound 0.0316 µM
[20] = second compound 0.316 µM, first compound 0.1 µM
[21] = second compound 0.316 µM, first compound 0.316 µM
[22] = second compound 0.316 µM, first compound 1 µM
[23] = second compound 0.316 µM, first compound 3.16 µM
[24] = second compound 0.316 µM, first compound 10 µM
[25] = second compound 1 µM, first compound 0.0316 µM
[26] = second compound 1 µM, first compound 0.1 µM
[27] = second compound 1 µM, first compound 0.316 µM
[28] = second compound 1 µM, first compound 1 µM
[29] = second compound 1 µM, first compound 3.16 µM
[30] = second compound 1 µM, first compound 10 µM
[31] = second compound 3.16 µM, first compound 0.0316 µM
[32] = second compound 3.16 µM, first compound 0.1 µM
[33] = second compound 3.16 µM, first compound 0.316 µM
[34] = second compound 3.16 µM, first compound 1 µM
[35] = second compound 3.16 µM, first compound 3.16 µM
[36] = second compound 3.16 µM, first compound 10 µM
[37] = second compound 10 µM, first compound 0.0316 µM
[38] = second compound 10 µM, first compound 0.1 µM
[39] = second compound 10 µM, first compound 0.316 µM
[40] = second compound 10 µM, first compound 1 µM
[41] = second compound 10 µM, first compound 3.16 µM
[42] = second compound 10 µM, first compound 10 µM
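Note: compound exposure lasted seven days before the viability readout.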
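Throughout, for viability, T/C: 100% = DMSO vehicle control wells.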

- IC50 (curve of compound): > 10000 nM
SMILES: O=c1[nH]cc(F)c(=O)[nH]1
- viability, T/C (compound 0.0316 µM): 90.7% and 97.5%
- viability, T/C (compound 0.1 µM): 107% and 93.2%
- viability, T/C (compound 0.316 µM): 91.5% and 98.6%
- viability, T/C (compound 1 µM): 97.5% and 100%
- viability, T/C (compound 3.16 µM): 70.2% and 81.4%
- viability, T/C (compound 10 µM): 50.9% and 73.7%

- IC50 (curve of compound): 5210 nM
SMILES: COC1C=CCC(C)C(C)S(=O)(=O)NC(=O)c2ccc3c(c2)N(CC2CCC21)CC1(CCCc2cc(Cl)ccc21)CO3 (stereo not drawn)
- viability, T/C (compound 0.0316 µM): 96.5% and 98.1%
- viability, T/C (compound 0.1 µM): 91.1% and 82%
- viability, T/C (compound 0.316 µM): 98.4% and 83.7%
- viability, T/C (compound 1 µM): 98.3% and 78.7%
- viability, T/C (compound 3.16 µM): 84.1% and 88.6%
- viability, T/C (compound 10 µM): 5.48% and 2.76%

SMILES: CC(Nc1ccc2c(c1)OCCn1cc(N3C(=O)OCC3C(F)F)nc1-2)C(N)=O (stereo not drawn) + CN1CCN(c2cc(C(=O)Nc3cc4cc(-c5cnn(C)c5)ccc4cn3)ccn2)CC1
- IC50 [1]: > 10000 nM
- IC50 [2]: 8870 nM
- IC50 [3]: < 31.6 nM
- IC50 [4]: < 31.6 nM
- IC50 [5]: < 31.6 nM
- IC50 [6]: < 31.6 nM
- viability, T/C [7]: 85.2%
- viability, T/C [8]: 89.8%
- viability, T/C [9]: 69.3%
- viability, T/C [10]: 89.3%
- viability, T/C [11]: 68.6%
- viability, T/C [12]: 62.5%
- viability, T/C [13]: 92.4%
- viability, T/C [14]: 81.8%
- viability, T/C [15]: 87.2%
- viability, T/C [16]: 68.9%
- viability, T/C [17]: 84.2%
- viability, T/C [18]: 46.2%
- viability, T/C [19]: 19.4%
- viability, T/C [20]: 22.5%
- viability, T/C [21]: 21.1%
- viability, T/C [22]: 18.9%
- viability, T/C [23]: 22.9%
- viability, T/C [24]: 11.4%
- viability, T/C [25]: 0.15%
- viability, T/C [26]: 0.14%
- viability, T/C [27]: 0.75%
- viability, T/C [28]: 0.56%
- viability, T/C [29]: 0.08%
- viability, T/C [30]: 0.1%
- viability, T/C [31]: 0.84%
- viability, T/C [32]: 0.13%
- viability, T/C [33]: 0.14%
- viability, T/C [34]: 0.52%
- viability, T/C [35]: 0.43%
- viability, T/C [36]: 0.48%
- viability, T/C [37]: 0.1%
- viability, T/C [38]: 0.12%
- viability, T/C [39]: 0.71%
- viability, T/C [40]: 1.07%
- viability, T/C [41]: 0.4%
- viability, T/C [42]: 0.19%

SMILES: C=CC(=O)N1CCN(c2nc(=O)n(-c3c(C)ccnc3C(C)C)c3nc(-c4c(O)cccc4F)c(F)cc23)C(C)C1 (stereo not drawn) + CN1CCN(c2cc(C(=O)Nc3cc4cc(-c5cnn(C)c5)ccc4cn3)ccn2)CC1
- IC50 [1]: > 10000 nM
- IC50 [2]: > 10000 nM
- IC50 [3]: < 31.6 nM
- IC50 [4]: < 31.6 nM
- IC50 [5]: < 31.6 nM
- IC50 [6]: < 31.6 nM
- viability, T/C [7]: 105%
- viability, T/C [8]: 92.5%
- viability, T/C [9]: 91.2%
- viability, T/C [10]: 94.4%
- viability, T/C [11]: 84.6%
- viability, T/C [12]: 75.2%
- viability, T/C [13]: 85.5%
- viability, T/C [14]: 79.2%
- viability, T/C [15]: 72.5%
- viability, T/C [16]: 88.1%
- viability, T/C [17]: 84.2%
- viability, T/C [18]: 62.5%
- viability, T/C [19]: 29.6%
- viability, T/C [20]: 32.8%
- viability, T/C [21]: 29.3%
- viability, T/C [22]: 29.2%
- viability, T/C [23]: 38.5%
- viability, T/C [24]: 13.2%
- viability, T/C [25]: 0.15%
- viability, T/C [26]: 3.06%
- viability, T/C [27]: 0.25%
- viability, T/C [28]: 1.12%
- viability, T/C [29]: 1.01%
- viability, T/C [30]: 0.17%
- viability, T/C [31]: 0.18%
- viability, T/C [32]: 0.13%
- viability, T/C [33]: 0.13%
- viability, T/C [34]: 0.34%
- viability, T/C [35]: 1.33%
- viability, T/C [36]: 1.3%
- viability, T/C [37]: 0.12%
- viability, T/C [38]: 0.54%
- viability, T/C [39]: 1.42%
- viability, T/C [40]: 0.17%
- viability, T/C [41]: 1.04%
- viability, T/C [42]: 0.5%
